Assay results from the NIST ThermoML archive (doi:10.1016/j.jct.2013.01.008).

Assays:
[1] = 101 kPa, Liquid; for viscosity: Capillary tube (Ostwald / Ubbelohde) method
[2] = wn = mass fraction of the nth substance listed; conditions: 101 kPa, Liquid; for mass density: Pycnometric method; for viscosity: Capillary tube (Ostwald / Ubbelohde) method
[3] = mn = molality of the nth substance listed, in mol/kg; conditions: 101 kPa, Liquid, m2 = 0; for viscosity: Capillary tube (Ostwald / Ubbelohde) method

O [water]
[1]
Conditions	viscosity [mPa·s]
298.15 K	0.8903
303.15 K	0.7973
308.15 K	0.719
313.15 K	0.6526
318.15 K	0.5972

Conditions	mass density [kg/m3]
[1], 308.15 K, Pycnometric method	994.07

O=C[C@H](O)[C@@H](O)[C@H](O)[C@H](O)CO [D-glucose] + O
[2]
Conditions	mass density, w1 = 0.05 [kg/m3]	mass density, w1 = 0.1 [kg/m3]	mass density, w1 = 0.15 [kg/m3]	mass density, w1 = 0.2 [kg/m3]	viscosity, w1 = 0.05 [mPa·s]	viscosity, w1 = 0.1 [mPa·s]	viscosity, w1 = 0.15 [mPa·s]	viscosity, w1 = 0.2 [mPa·s]
293.15 K	1016.28	1034.79	1053.29	1072.41	–	–	–	–
298.15 K	1014.69	1033.15	1051.61	1070.31	0.9767	1.12	1.316	1.67
303.15 K	1013.08	1031.5	1049.92	1068.17	0.8605	0.9907	1.147	1.491
308.15 K	1011.47	1029.84	1048.37	1065.97	0.7697	0.8844	1.018	1.345
313.15 K	1009.85	1028.17	1046.62	1063.76	0.6945	0.7901	0.8925	1.21
318.15 K	–	1026.48	1044.93	1061.52	0.6334	0.7223	0.8097	1.112

O [water] + C[C@@H](O)[C@H](N)C(=O)O
[3]
Conditions	viscosity [mPa·s]
298.15 K	0.8903
303.15 K	0.7973
308.15 K	0.719
313.15 K	0.6526
318.15 K	0.5972

Conditions	mass density [kg/m3]
[3], 308.15 K, Pycnometric method	994.07
